Measurements taken from patent publication US10351548B2, “2-oxo-1,2-dihydropyridine-3-carboxamide compounds and their use as inhibitors of PDK1” (INTERNATIONAL SOCIETY FOR DRUG DEVELOPMENT S.R.L., priority 2015, dated 2019).

Key:
Format in all cases: cell-based, human
[1] = test system: GSCs isolated from U87MG cells; assay: GSC proliferation, MTS assay; details: for IC50: Homo sapiens, U-87 MG, 168 h, seven days of treatment, MTS assay; for inhibition of GSC proliferation: starting from four days of treatment
Method: The U87MG cell line was obtained from the National Institute for Cancer Research of Genoa (Italy) and cultured in DMEM 10% FBS and 2 mM glutamine. To isolate GSCs, approximately 2.0×10^6 cells were suspended in 1 mL of a defined serum-free Neural Stem Cell (NSC) medium (Daniele, S., et al., Modulation of A1 and A2B adenosine receptor activity: a new strategy to sensitise glioblastoma stem cells to chemotherapy. Cell death & disease, 2014. 5(11): p. e1539). After 3-4 days of culture, the neurospheres were collected, suspended in NSC medium, dissociated into single cells, and plated for the assays. For the long-term treatment of cells, NSC or complete medium containing drugs was replaced every two to three days.
The human U87MG cells or GSCs were seeded at a density of 3×10^3 cells/well. After 24 h, the cells were treated from one to seven days with fresh growth medium containing different concentrations of SA16, SA23 or IB35. Following the treatment period, cell proliferation was determined using the MTS assay according to manufacturer's instruction. The absorbance of formazan at […] was measured in a colorimetric assay with an automated plate reader (Victor Wallac 2, Perkin Elmer). The results were calculated by subtracting the mean background from the values obtained from each evaluation and were expressed as the percentage of the control (untreated cells). Sigmoid dose-response curve was generated, from which the IC50 values were derived.
The inhibition of PDK1 has been reported as potentially effective therapeutic approach to reduce self-renewal and propagation of GSCs (Signore, M., et al., Combined PDK1 and CHK1 inhibition is required to kill glioblastoma stem-like cells in vitro and in vivo. Cell death & disease, 2014. 5(5): p. e1223). On this basis, the effects of SA16, SA23 and IB35 on GSCs, isolated from U87MG cells as previously reported, were evaluated (Daniele, S., et al., Modulation of A1 and A28 adenosine receptor activity: a new strategy to sensitise glioblastoma stem cells to chemotherapy. Cell death & disease, 2014. 5(11): p. e1539). U87MG-derived GSCs were incubated with the indicated concentrations of IB35, SA23 or SA16 for four days (FIG. 8) or seven days (FIG. 9). At the end of the treatment periods, cell proliferation was measured using the MTS assay. The data were expressed as a percentage with respect to that of untreated cells (control), which was set to 100%, and are the mean values±SEM of three independent experiments, each performed in duplicate. IC50 values after seven days of treatment were calculated from sigmoid dose-response curve (FIG. 9). The significance of the differences was determined with a one-way ANOVA with Bonferroni post-test (** p<0.01, *** p<0.001 vs. control).

U87MG cells = assay: Annexin V and 7-AAD staining in U87MG cells (apoptosis); details: 10 μM, 72 h
Method: Dual staining with Annexin V coniugated to fluorescein-isothiocyanate (FITC) and 7-amino-actinomysin (7-AAD) was performed using the commercially available kit (Muse Annexin V and Dead Cell Kit; Merck KGaA, Darmstadt, Germany). U87MG cells or GSCs were treated with DMSO (control), SA16, SA23 or IB35 for 72 h or seven days, respectively. At the end of the treatment periods, the percentages of living, apoptotic and dead cells were acquired and analysed by Muse™ Cell Analyzer as previously described (Daniele, S., et al., Combined inhibition of AKT/mTOR and MDM2 enhances Glioblastoma Multiforme cell apoptosis and differentiation of cancer stem cells. Sci. Rep., 2015. 5.).
It was then investigated whether the reduction in cell proliferation elicited by the PDK1 inhibitors could be associated with apoptosis. U87MG cells were treated for 72 h with DMSO (control), or 10 μM SA16, SA23 or IB35. At the end of the treatment period, the cells were collected, and the level of phosphatidylserine externalisation was evaluated using the Annexin V-staining protocol, as described above (FIG. 3). In FIG. 4 the data are expressed as the percentage of apoptotic cells (the data for the early-stage apoptotic cells shown in white, and the data for the late-stage apoptotic/necrotic cells shown in grey) versus the total number of cells. The data shown represented the mean±SEM of three different experiments. The significance of the differences was determined with a one-way ANOVA with Bonferroni post-test (*** p<0.001 vs. control).

[2] = test system: AKT phosphorylation at Thr308 in U87MG cells; assay: PDK1 activity in U87MG cells, (T308)AKT phosphorylation ELISA; details: for inhibition at 10 µM: Homo sapiens, U-87 MG, U87MG cells, read-out: peak of inhibition (percentage of PDK1 inhibition); for time of peak of inhibition of (T308)AKT phosphorylation / inhibition of AKT phosphorylation at Thr308: U87MG, 10 μM; for inhibition of AKT phosphorylation at Thr308: 0-120 min
Method: (§1) U87MG cells were cultured in 96-well microplates (5.000 cells/well), and treated for different times with 10 μM SA16, SA23 or IB35. At the end of the treatment period, the GSCs were centrifuged at 500×g for 3 minutes; cells were washed twice using fresh saline, and rapidly fixed with 4% (for adherent U87MG cells) or 8% (for suspension GSCs) formaldehyde to preserve activation of specific protein modification. The activity of PDK1 was assessed measuring the levels of phosphorylated AKT on Thr308, using a specific primary antibodies. The subsequent incubation with a secondary HRP-conjugated antibody and the developing solution allowed the colorimetric quantification of the levels of phosphorylated protein. The relative number of cells in each well was then determined using the Crystal-Violet assay. The results were calculated by subtracting the mean background value from the values obtained under each test condition: values were normalised to the number of cells in each well and were expressed as the percentages of the control (untreated cells) values.
280(4): p. 1107-1115). […] At the end of the treatment periods, the levels of (T308)AKT phosphorylation was evaluated using an ELISA kit, as described above. The data reported in FIG. 5 were expressed as the percentage of phosphorylated (T308)AKT relative to those of untreated cells (control), which were set at 100%, and were the mean values±SEM of three independent experiments performed in triplicate.

[3] = test system: AKT phosphorylation at Thr308 in GSCs; assay: PDK1 activity in GSCs, (T308)AKT phosphorylation ELISA; details: for time of peak of inhibition of AKT phosphorylation at Thr308 / inhibition of AKT phosphorylation at Thr308: 10 μM; for inhibition of AKT phosphorylation at Thr308: 0-120 min; for inhibition at 10 µM: Homo sapiens, read-out: peak of inhibition (percentage of PDK1 inhibition)
Method: as §1
The effects of the new compounds on PDK1 activity were investigated by ELISA assays also in GSCs. U87MG-derived CSCs were treated for the indicated times (0-120 min) with NSC medium containing DMSO (control), or 10 μM IIB35, SA23 or SA16. At the end of the treatment periods, the levels of AKT phosphorylation on Thr308 were evaluated using an ELISA assay, as above described. The data were expressed as the percentage of phosphorylated AKT relative to those of untreated cells (control), which were set at 100%, and were the mean values±SEM of three independent experiments performed in triplicate. The data are represented in FIG. 12. The significance of differences was performed using one-way ANOVA with Bonferroni post-test (* p<0.05, ** p<0.01, *** p<0.001 vs. control).

SMILES	IC50 [1] [nM]	inhibition of GSC proliferation [1]	percentage of total apoptotic cells (U87MG cells) [%]	phosphatidylserine externalization (early and late apoptosis/death) (U87MG cells)	inhibition at 10 µM [2] [%]	time of peak of inhibition of (T308)AKT phosphorylation [2] [min]	inhibition of AKT phosphorylation at Thr308 [2]	time of peak of inhibition of AKT phosphorylation at Thr308 [3] [min]	inhibition of AKT phosphorylation at Thr308 [3]	inhibition at 10 µM [3] [%]
O=C(CNC(=O)c1cccn(Cc2ccc(F)c(F)c2)c1=O)Nc1ccc2c(c1)/C(=C/c1cnc[nH]1)C(=O)N2 [IB35, (Z)—N-(2-((3-((1H-imidazol-5-yl)methylene)-2-oxoindolin-5-yl)amino)-2-oxoethyl)-1-(3,4-difluorobenzyl)-2-oxo-1,2-dihydro pyridine-3-carboxamide]	3.36 ± 0.4	significant inhibition	23.0±1.9	significant phosphatidylserine externalization	54 ± 5.2	120	significantly inhibited	120	significantly inhibited	80.4 ± 3.7
O=C1Nc2ccc(NC(=O)[C@H](NC(=O)c3cccn(Cc4ccc(F)c(F)c4)c3=O)c3ccccc3)cc2/C1=C/c1ncc[nH]1 [SA23, (Z)—(R)—N-(2-((3-((1H-imidazol-2-yl)methylene)-2-oxoindolin-5-yl)amino)-2-oxo-1-phenylethyl)-1-(3,4-difluorobenzyl)-2-oxo-1,2-dihydropyridine-3-carboxamide]	0.3 ± 0.04	significant inhibition	–	significant phosphatidylserine externalization	48.1 ± 5	120	significantly inhibited	120	significantly inhibited	69 ± 4.5
